# Patent US7348318B2, “α-Amino-N-(diaminophosphinyl)lactam derivatives” (priority 2002, dated 2008)
# Where a name gives a salt, the structure may show the parent alone.
# Tests used:
# dipeptidyl peptidase IV = target: T1, dipeptidyl peptidase IV (Rattus norvegicus, UniProt P14740); assay: biochemical; conditions: glycyl·prolyl·β-naphthylamide, pH 7.2, 37° C., 1 hour, read-out: Dipeptidyl peptidase IV 50% inhibition activity value (converted)
# T1 construct: partially purified from rat kidney homogenate by ammonium sulfate fractionation; from tissue; host or cells: rat kidney
# T1 sequence (P14740 whole entry): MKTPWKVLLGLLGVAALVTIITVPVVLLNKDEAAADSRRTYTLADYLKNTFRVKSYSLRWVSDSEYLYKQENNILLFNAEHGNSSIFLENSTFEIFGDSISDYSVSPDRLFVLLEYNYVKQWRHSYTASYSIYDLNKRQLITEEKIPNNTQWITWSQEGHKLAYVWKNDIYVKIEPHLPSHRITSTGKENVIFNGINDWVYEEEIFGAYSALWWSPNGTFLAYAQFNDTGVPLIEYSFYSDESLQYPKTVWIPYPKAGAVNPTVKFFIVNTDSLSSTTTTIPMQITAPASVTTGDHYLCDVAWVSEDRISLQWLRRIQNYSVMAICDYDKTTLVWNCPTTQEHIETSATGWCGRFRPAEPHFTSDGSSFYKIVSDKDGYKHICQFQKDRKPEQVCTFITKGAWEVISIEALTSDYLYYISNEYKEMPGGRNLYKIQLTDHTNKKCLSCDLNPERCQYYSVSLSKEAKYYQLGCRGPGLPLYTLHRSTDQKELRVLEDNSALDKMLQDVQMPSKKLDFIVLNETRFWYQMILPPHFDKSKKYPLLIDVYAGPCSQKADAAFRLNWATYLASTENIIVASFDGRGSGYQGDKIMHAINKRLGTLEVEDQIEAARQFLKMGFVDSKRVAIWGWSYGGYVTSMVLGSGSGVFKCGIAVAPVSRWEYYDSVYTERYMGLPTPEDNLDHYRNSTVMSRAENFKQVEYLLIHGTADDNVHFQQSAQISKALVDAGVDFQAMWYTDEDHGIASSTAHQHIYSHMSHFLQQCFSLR
# [1] = tested on: ICR strain male mice (Crj:CD-1); assay: Test for evaluating efficacy in drug-induced leukopenia (cyclophosphamide); assay type: in vivo; conditions: for number of leukocytes: cyclophosphamide 200 mg/kg i.p. Day 0
# Procedure: The efficacy of the compound of Example 1 in drug-induced leukopenia was evaluated according to the method of Okabe et al. (Yakuri to Chiryo (Pharmacology and Treatment), Vol. 19, No. 6, p. 55, 1991).
# ICR strain male mice (Crj:CD-1) aged 8 weeks were used in the test. The animals were divided into three groups of 3 or 4 animals each. On Day 0, cyclophosphamide was intraperitoneally administered once to all the groups in a dose of 200 mg/kg. From the next day, the following were intravenously and repeatedly administered to the groups, respectively, for 5 days (Days 1 to 5); a first group (a control group): physiological saline, a second group: the compound of Example 1 (30 mg/kg/day), and a third group: the compound of Example 1 (100 mg/kg/day). Blood was drawn from the orbital vein on Day 0 (before the administration of cyclophosphamide) and Days 2, 4, 6, 8 and 10, and the number of leukocytes was periodically measured to investigate the leukocyte-increasing effect of the compound of Example 1 on leukopenia induced by cyclophosphamide.
# [2] = tested on: ICR strain male mice (Crj:CD-1); assay: Test for investigating the increase of leukocytes and the decrease of platelets in normal mice; assay type: in vivo; conditions: for Number of platelets / number of leukocytes: blood drawn day after last administration
# Procedure: ICR strain male mice (Crj:CD-1) aged 8 weeks were used in the test. The animals were divided into 5 groups of 3 to 4 animals each. The following were intravenously and repeatedly administered to the groups, respectively, for 5 days; a first group: physiological saline as solvent, a second group: the compound of Example 45 (hydrochloride of the compound of Example 1) (10 mg/kg/day), a third group: the compound of Example 45 (50 mg/kg/day), a fourth group: the compound of Example 45 (250 mg/kg/day), and a fifth group: sulphostin (WO 99/25719 and JP-A-2000-327689; (3S, PR)-3-amino-1-amino(sulfoamino)phosphinyl-2-piperidone) (50 mg/kg/day). On the day subsequent to the last day in the administration period, blood was drawn from the abdominal aorta under anesthesia and the number of leukocytes and the number of platelets were measured.
# [3] = normal mice, 10 mg/kg/day i.v. for 5 days
# [4] = normal mice, 50 mg/kg/day i.v. for 5 days
# [5] = normal mice, 250 mg/kg/day i.v. for 5 days
structure (smiles),measurement,setting,value
"CCCNP(N)(=O)N1CCC[C@H](N)C1=O (mixture of isomers) [Example 15, (3S, P (RS))-3-amino-1-amino(n-propylamino)phosphinyl-2-piperidone]",IC50,dipeptidyl peptidase IV,7260 nM
"N[C@H]1CCCN(P(N)(=O)NC(=O)c2ccccc2)C1=O (mixture of isomers) [Example 39, (3S, P (RS))-3-amino-1-amino(benzoylamino)phosphinyl-2-piperidone]",IC50,dipeptidyl peptidase IV,2400 nM
"CCCC(=O)NP(N)(=O)N1CCC[C@H](N)C1=O (mixture of isomers) [Example 51, (3S, P (SR))-3-amino-1-amino(n-butanoylamino)phosphinyl-2-piperidone]",IC50,dipeptidyl peptidase IV,1140 nM
"CC(C)(C)CC(=O)NP(N)(=O)N1CCC[C@H](N)C1=O (mixture of isomers) [Example 53, (3S, P (SR))-3-amino-1-amino(t-butylacetylamino)phosphinyl-2-piperidone]",IC50,dipeptidyl peptidase IV,1480 nM
"N[C@H]1CCCN(P(N)(=O)NC(=O)C2CCCCC2)C1=O (mixture of isomers) [Example 55, (3S, P (SR))-3-amino-1-amino(cyclohexanecarbonylamino)phosphinyl-2-piperidone]",IC50,dipeptidyl peptidase IV,1590 nM
"N[C@H]1CCCN(P(N)(=O)NC(=O)COc2ccccc2)C1=O (mixture of isomers) [Example 57, (3S, P (SR))-3-amino-1-amino(phenoxyacetylamino)phosphinyl-2-piperidone]",IC50,dipeptidyl peptidase IV,187 nM
"N[C@H]1CCCN(P(N)(=O)NC(=O)CCc2ccccc2)C1=O (mixture of isomers) [Example 59, (3S, P (SR))-3-amino-1-amino(3-phenylpropanoylamino)phosphinyl-2-piperidone]",IC50,dipeptidyl peptidase IV,894 nM
"COc1ccc(C(=O)NP(N)(=O)N2CCC[C@H](N)C2=O)cc1 (mixture of isomers) [Example 61, (3S, P (SR))-3-amino-1-amino(4-methoxybenzoylamino)phosphinyl-2-piperidone]",IC50,dipeptidyl peptidase IV,1070 nM
"N[C@H]1CCCN(P(N)(=O)Nc2ccccc2)C1=O (single isomer, unassigned) [Example 17, (3S, P (R or S))-3-amino-1-amino(phenylamino)phosphinyl-2-piperidone]",IC50,dipeptidyl peptidase IV,5590 nM
"CC(=O)NP(N)(=O)N1CCC[C@H](N)C1=O (single isomer, unassigned) [Example 48, (3S, P (R or S))-3-amino-1-amino(acetylamino)phosphinyl-2-piperidone ½ fumarate]",IC50,dipeptidyl peptidase IV,1620 nM
"N[C@H]1CCCN(P(N)(N)=O)C1=O [Example 1, (3S)-3-amino-1-diaminophosphinyl-2-piperidone]",IC50,dipeptidyl peptidase IV,88.5 nM
same,number of leukocytes,"[1]; 30 mg/kg/day i.v. Days 1 to 5, Day 0 (before cyclophosphamide)",33 ± 7.8 ×100/millimeter cube
same,number of leukocytes,"[1]; 30 mg/kg/day i.v. Days 1 to 5, Day 2",23 ± 14.2 ×100/millimeter cube
same,number of leukocytes,"[1]; 30 mg/kg/day i.v. Days 1 to 5, Day 4",7 ± 1.8 ×100/millimeter cube
same,number of leukocytes,"[1]; 30 mg/kg/day i.v. Days 1 to 5, Day 6",25 ± 6.2 ×100/millimeter cube
same,number of leukocytes,"[1]; 30 mg/kg/day i.v. Days 1 to 5, Day 8",108 ± 52.8 ×100/millimeter cube
same,number of leukocytes,"[1]; 30 mg/kg/day i.v. Days 1 to 5, Day 10",58 ± 16.1 ×100/millimeter cube
same,number of leukocytes relative to Day 0,"[1]; 30 mg/kg/day, Day 0",100%
same,number of leukocytes relative to Day 0,"[1]; 30 mg/kg/day, Day 2",70%
same,number of leukocytes relative to Day 0,"[1]; 30 mg/kg/day, Day 4",21%
same,number of leukocytes relative to Day 0,"[1]; 30 mg/kg/day, Day 6",76%
same,number of leukocytes relative to Day 0,"[1]; 30 mg/kg/day, Day 8",327%
same,number of leukocytes relative to Day 0,"[1]; 30 mg/kg/day, Day 10",176%
same,number of leukocytes,"[1]; 100 mg/kg/day i.v. Days 1 to 5, Day 0 (before cyclophosphamide)",81 ± 38.7 ×100/millimeter cube
same,number of leukocytes,"[1]; 100 mg/kg/day i.v. Days 1 to 5, Day 2",25 ± 8.3 ×100/millimeter cube
same,number of leukocytes,"[1]; 100 mg/kg/day i.v. Days 1 to 5, Day 4",13 ± 6.8 ×100/millimeter cube
same,number of leukocytes,"[1]; 100 mg/kg/day i.v. Days 1 to 5, Day 6",124 ± 144.2 ×100/millimeter cube
same,number of leukocytes,"[1]; 100 mg/kg/day i.v. Days 1 to 5, Day 8",139 ± 36.7 ×100/millimeter cube
same,number of leukocytes,"[1]; 100 mg/kg/day i.v. Days 1 to 5, Day 10",49 ± 7.3 ×100/millimeter cube
same,number of leukocytes relative to Day 0,"[1]; 100 mg/kg/day, Day 0",100%
same,number of leukocytes relative to Day 0,"[1]; 100 mg/kg/day, Day 2",31%
same,number of leukocytes relative to Day 0,"[1]; 100 mg/kg/day, Day 4",16%
same,number of leukocytes relative to Day 0,"[1]; 100 mg/kg/day, Day 6",153%
same,number of leukocytes relative to Day 0,"[1]; 100 mg/kg/day, Day 8",172%
same,number of leukocytes relative to Day 0,"[1]; 100 mg/kg/day, Day 10",60%
same,effect in increasing the number of leukocytes (in words),[1]; data on Day 8,very effective in increasing the number of leukocytes
same,recovery of the number of leukocytes to the initial value after the administration of cyclophosphamide,"[1]; groups treated with 30 and 100 mg/kg/day, control group requires 8 days",6 days
"N[C@H]1CCCN(P(=O)(Nc2ccccc2)Nc2ccccc2)C1=O [Example 11, (3S)-3-amino-1-bis(phenylamino)phosphinyl-2-piperidone]",IC50,dipeptidyl peptidase IV,43600 nM
"CN[C@H]1CCCN(P(N)(N)=O)C1=O [Example 22, (3S)-3-methylamino-1-diaminophosphinyl-2-piperidone]",IC50,dipeptidyl peptidase IV,1410 nM
"CCCN[C@H]1CCCN(P(N)(N)=O)C1=O [Example 25, (3S)-3-n-propylamino-1-diaminophosphinyl-2-piperidone]",IC50,dipeptidyl peptidase IV,3670 nM
"CC(C)N[C@H]1CCCN(P(N)(N)=O)C1=O [Example 28, (3S)-3-isopropylamino-1-diaminophosphinyl-2-piperidone]",IC50,dipeptidyl peptidase IV,17900 nM
"CCCCN[C@H]1CCCN(P(N)(N)=O)C1=O [Example 31, (3S)-3-n-butylamino-1-diaminophosphinyl-2-piperidone]",IC50,dipeptidyl peptidase IV,3750 nM
"NP(N)(=O)N1CCC[C@H](NCc2ccccc2)C1=O [Example 34, (3S)-3-benzylamino-1-diaminophosphinyl-2-piperidone]",IC50,dipeptidyl peptidase IV,3900 nM
"NP(N)(=O)N1CCC[C@H](NCc2ccco2)C1=O [Example 37, (3S)-3-furfurylamino-1-diaminophosphinyl-2-piperidone]",IC50,dipeptidyl peptidase IV,7710 nM
"N[C@@H]1CCCN(P(N)(N)=O)C1=O [Example 42, (3R)-3-amino-1-diaminophosphinyl-2-piperidone]",IC50,dipeptidyl peptidase IV,48.4 nM
"N[C@H]1CCCCN(P(N)(N)=O)C1=O [Example 43, (3S)-3-amino-1-diaminophosphinyl-2-perhydroazepinone]",IC50,dipeptidyl peptidase IV,107 nM
"Cl.N[C@H]1CCCN(P(N)(N)=O)C1=O [Example 45, (3S)-3-amino-1-diaminophosphinyl-2-piperidone hydrochloride]",factor by which the number of leukocytes is larger than that of the control group,[2]; 10 mg/kg/day group,4.2
same,factor by which the number of leukocytes is larger than that of the control group,[2]; 50 mg/kg/day group,3.8
same,factor by which the number of leukocytes is larger than that of the control group,[2]; 250 mg/kg/day group,6.7
same,Number of platelets,[2]; [3],76.0 ± 7.8 ×10000/millimeter cube
same,number of leukocytes,[2]; [3],25 ± 13 ×100/millimeter cube
same,Number of platelets,[2]; [4],84.9 ± 8.3 ×10000/millimeter cube
same,number of leukocytes,[2]; [4],23 ± 19 ×100/millimeter cube
same,Number of platelets,[2]; [5],81.1 ± 8.0 ×10000/millimeter cube
same,number of leukocytes,[2]; [5],40 ± 18 ×100/millimeter cube
same,influence on the number of platelets (in words),"[2]; normal mice, all the groups (10, 50, 250 mg/kg/day)",did not decrease the number of platelets
"N[C@H]1CCCN([P@@](N)(=O)NS(=O)(=O)O)C1=O [sulphostin, (3S, PR)-3-amino-1-amino(sulfoamino)phosphinyl-2-piperidone, reference compound]",number of platelets as compared with the control group,"[2]; 50 mg/kg/day, decreased",73%
same,Number of platelets,[2]; [4],57.1 ± 5.1 ×10000/millimeter cube
same,number of leukocytes,[2]; [4],15 ± 5 ×100/millimeter cube
